# Measured values: ChEMBL document CHEMBL1201862, “PubChem BioAssay data set” (2004)
#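 In this assay, cells in 96-well plates receive the compound at five concentrations for 48 hours. Endpoints are linearly interpolated between the surrounding concentrations. GI50 = concentration required for 50% inhibition of growth.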 The source made the active and inactive calls. Rule as the data show it: active = GI50 up to about 1.1 µM and inactive = higher.
# What was measured:
# Experiment in all cases: growth of human tumour cells (NCI), 48 h
# MDA-MB-231 = tested on: MDA-MB-231
# UACC-257 = tested on: UACC-257
# SK-MEL-28 = tested on: SK-MEL-28
# LOX IMVI = tested on: LOX IMVI
# MDA-N = tested on: MDA-N
# UO-31 = tested on: UO-31
# SK-OV-3 = tested on: SK-OV-3
# COLO 205 = tested on: COLO 205
# TK-10 = tested on: TK-10
# SK-MEL-2 = tested on: SK-MEL-2
# ACHN = tested on: ACHN
# NCI-H522 = tested on: NCI-H522
# NCI-H226 = tested on: NCI-H226
# EKVX = tested on: EKVX
# MCF7 = tested on: MCF7
# NCI-H460 = tested on: NCI-H460
# HT-29 = tested on: HT-29
# 786-0 = tested on: 786-0
# K562 = tested on: K562
SMILES,GI50 (MDA-MB-231),GI50 (UACC-257),GI50 (SK-MEL-28),GI50 (LOX IMVI),GI50 (MDA-N),GI50 (UO-31),GI50 (SK-OV-3),GI50 (COLO 205),GI50 (TK-10),GI50 (SK-MEL-2),GI50 (ACHN),GI50 (NCI-H522),GI50 (NCI-H226),GI50 (EKVX),GI50 (MCF7),GI50 (NCI-H460),GI50 (HT-29),GI50 (786-0),GI50 (K562)
Nc1nc(N)nc(CCCc2nc(N)nc(N)n2)n1,> 100 µM (inactive),> 100 µM (inactive),> 100 µM (inactive),> 100 µM (inactive),> 100 µM (inactive),> 100 µM (inactive),> 100 µM (inactive),> 100 µM (inactive),> 100 µM (inactive),> 100 µM (inactive),> 100 µM (inactive),> 100 µM (inactive),> 100 µM (inactive),> 100 µM (inactive),> 100 µM (inactive),> 100 µM (inactive),> 100 µM (inactive),> 100 µM (inactive),> 100 µM (inactive)
CCCC(=O)O[C@H]1C=C2C[C@@]34SS[C@]5(CC6=C[C@H](OC(C)=O)[C@@H]7O[C@@H]7[C@H]6N5C3=O)C(=O)N4[C@@H]2[C@H]2O[C@H]21,0.0254 µM (active),0.0181 µM (active),0.0251 µM (active),0.0208 µM (active),0.00817 µM (active),0.059 µM (active),0.0569 µM (active),0.0137 µM (active),0.0347 µM (active),0.0552 µM (active),0.0186 µM (active),< 0.005 µM (active),0.0766 µM (active),0.0178 µM (active),0.0132 µM (active),0.0218 µM (active),0.00569 µM (active),< 0.005 µM (active),0.00923 µM (active)
Nc1nc(Cl)c(N)c(NCC2(CO)CCC(OCc3ccccc3)C2)n1 (stereo unspecified),> 100 µM (inactive),0.522 µM (active),> 100 µM (inactive),18.5 µM (inactive),> 100 µM (inactive),> 100 µM (inactive),> 100 µM (inactive),> 100 µM (inactive),> 100 µM (inactive),84.1 µM (inactive),> 100 µM (inactive),> 100 µM (inactive),0.433 µM (active),0.931 µM (active),47.8 µM (inactive),> 100 µM (inactive),> 100 µM (inactive),> 100 µM (inactive),1.33 µM (inactive)
O=C1NC(NNc2ccccc2)=N/C1=C\c1ccccc1O,68.2 µM (inactive),40.9 µM (inactive),> 100 µM (inactive),> 100 µM (inactive),71.3 µM (inactive),> 100 µM (inactive),> 100 µM (inactive),> 100 µM (inactive),67.3 µM (inactive),75.2 µM (inactive),49.1 µM (inactive),80.4 µM (inactive),86.1 µM (inactive),66.8 µM (inactive),40.4 µM (inactive),45.6 µM (inactive),61 µM (inactive),62.5 µM (inactive),50.2 µM (inactive)
Cc1ccc2c(c1)CC1(C2)Cc2ccc(C)cc2C1=O (stereo unspecified),21.5 µM (inactive),18.9 µM (inactive),42 µM (inactive),20.1 µM (inactive),7.35 µM (inactive),27.5 µM (inactive),59.3 µM (inactive),15.4 µM (inactive),31.2 µM (inactive),19.9 µM (inactive),27.7 µM (inactive),19.9 µM (inactive),11.5 µM (inactive),32.2 µM (inactive),24.7 µM (inactive),23.3 µM (inactive),18.7 µM (inactive),16.8 µM (inactive),22.8 µM (inactive)
N#CC(O)CCOCc1ccccc1 (stereo unspecified),> 100 µM (inactive),> 100 µM (inactive),> 100 µM (inactive),46.9 µM (inactive),86.7 µM (inactive),78.7 µM (inactive),> 100 µM (inactive),> 100 µM (inactive),> 100 µM (inactive),> 100 µM (inactive),39.4 µM (inactive),20.5 µM (inactive),> 100 µM (inactive),> 100 µM (inactive),41.6 µM (inactive),> 100 µM (inactive),38.6 µM (inactive),78.7 µM (inactive),80.7 µM (inactive)
CCOC(=O)C(Cc1cn(S(=O)(=O)c2ccc(C)cc2)cn1)P(=O)(OCC)OCC (stereo unspecified),> 100 µM (inactive),> 100 µM (inactive),> 100 µM (inactive),> 100 µM (inactive),> 100 µM (inactive),> 100 µM (inactive),> 100 µM (inactive),> 100 µM (inactive),> 100 µM (inactive),> 100 µM (inactive),> 100 µM (inactive),> 100 µM (inactive),> 100 µM (inactive),> 100 µM (inactive),> 100 µM (inactive),> 100 µM (inactive),> 100 µM (inactive),> 100 µM (inactive),> 100 µM (inactive)
CCOC(=O)/C=C(\C(=O)OCC)n1cc(C)c(=O)n(Cc2cnnn2CCCCOC(C)=O)c1=O,22.2 µM (inactive),15.7 µM (inactive),7.35 µM (inactive),4.06 µM (inactive),20.3 µM (inactive),15 µM (inactive),> 62.4 µM (inactive),2.09 µM (inactive),5.94 µM (inactive),22.1 µM (inactive),2.06 µM (inactive),1.38 µM (inactive),7.43 µM (inactive),11.3 µM (inactive),4.78 µM (inactive),12.4 µM (inactive),5.98 µM (inactive),2.96 µM (inactive),2.64 µM (inactive)
C=C(Cl)C(=C)CCC(Cl)C(C)C (stereo unspecified),> 100 µM (inactive),> 100 µM (inactive),> 100 µM (inactive),> 100 µM (inactive),> 100 µM (inactive),> 100 µM (inactive),> 100 µM (inactive),> 100 µM (inactive),> 100 µM (inactive),> 100 µM (inactive),> 100 µM (inactive),> 100 µM (inactive),> 100 µM (inactive),> 100 µM (inactive),> 100 µM (inactive),> 100 µM (inactive),> 100 µM (inactive),> 100 µM (inactive),> 100 µM (inactive)
CONC(C)=O,> 100 µM (inactive),> 100 µM (inactive),> 100 µM (inactive),> 100 µM (inactive),> 100 µM (inactive),> 100 µM (inactive),> 100 µM (inactive),> 100 µM (inactive),> 100 µM (inactive),> 100 µM (inactive),> 100 µM (inactive),> 100 µM (inactive),> 100 µM (inactive),> 100 µM (inactive),> 100 µM (inactive),> 100 µM (inactive),> 100 µM (inactive),> 100 µM (inactive),> 100 µM (inactive)
O=C(O)C1CC2C3CCC2C1C3=O (stereo unspecified),> 100 µM (inactive),> 100 µM (inactive),> 100 µM (inactive),> 100 µM (inactive),> 100 µM (inactive),> 100 µM (inactive),> 100 µM (inactive),> 100 µM (inactive),> 100 µM (inactive),> 100 µM (inactive),> 100 µM (inactive),> 100 µM (inactive),> 100 µM (inactive),> 100 µM (inactive),> 100 µM (inactive),> 100 µM (inactive),> 100 µM (inactive),> 100 µM (inactive),> 100 µM (inactive)
FC(F)(F)C1(C(F)(F)F)C2CCC3(CC(F)(F)C(F)(F)S3)C1C2 (stereo unspecified),> 100 µM (inactive),26.1 µM (inactive),> 100 µM (inactive),25.8 µM (inactive),> 100 µM (inactive),28.8 µM (inactive),> 100 µM (inactive),31.5 µM (inactive),> 100 µM (inactive),22.6 µM (inactive),37.8 µM (inactive),56.2 µM (inactive),64.7 µM (inactive),32.4 µM (inactive),36.1 µM (inactive),41.3 µM (inactive),29 µM (inactive),> 100 µM (inactive),36 µM (inactive)
CCCCCCCCCCCCCCCC(=O)N(CCCCCCCCCCC(=O)O)CC(O)C(O)C(OC1OC(CO)C(O)C(O)C1O)C(O)CO (stereo unspecified),> 100 µM (inactive),22 µM (inactive),18.5 µM (inactive),19.5 µM (inactive),34.7 µM (inactive),35.1 µM (inactive),54.7 µM (inactive),18.4 µM (inactive),> 100 µM (inactive),19 µM (inactive),> 100 µM (inactive),39.3 µM (inactive),> 100 µM (inactive),37.6 µM (inactive),53.6 µM (inactive),> 100 µM (inactive),22.8 µM (inactive),74.5 µM (inactive),22.5 µM (inactive)
O=C1c2cccnc2-c2nccc3ccnc1c23,1.32 µM (inactive),0.964 µM (active),1.2 µM (inactive),0.418 µM (active),0.2 µM (active),0.726 µM (active),1.49 µM (inactive),0.372 µM (active),1.7 µM (inactive),2.16 µM (inactive),0.158 µM (active),0.163 µM (active),1.58 µM (inactive),1.58 µM (inactive),0.24 µM (active),0.0583 µM (active),0.575 µM (active),0.461 µM (active),0.0456 µM (active)
